Experimental data: US7776858B2, “Methods of treatment of chronic pain using eszopiclone” (Sepracor Inc., priority 2004, dated 2010)

How the values were obtained:
[1] = test system: subjects with insomnia related to rheumatoid arthritis; assay: Arthritis Self-Efficacy Scale, clinical study of eszopiclone 3 mg vs placebo; type: in vivo, human; conditions: 3 mg nightly, ITT; for Arthritis Self-Efficacy Scale Function, Change from Baseline, Least Squares Means (SE) [2] / Arthritis Self-Efficacy Scale Other Symptoms, Change from Baseline, Least Squares Means (SE) [2] / Arthritis Self-Efficacy Scale Overall, Change from Baseline, Least Squares Means (SE) [2] / Arthritis Self-Efficacy Scale Pain and Other Symptoms, Change from Baseline, Least Squares Means (SE) [2] / Arthritis Self-Efficacy Scale Pain, Change from Baseline, Least Squares Means (SE) [2]: ANCOVA
Procedure: The study was aimed at observing the effect of eszopiclone 3 mg compared to placebo on daytime function in subjects with insomnia related to rheumatoid arthritis. The study was a multicenter, randomized, double-blind, placebo controlled, parallel group study.
A total of 153 subjects were randomized. Among them, 77 received 3 mg of eszopiclone (ESZ) nightly (at bedtime) for four weeks and 76 received matching placebo (PBO). […] In addition, subjects had insomnia symptoms including wake time after sleep onset (WASO) of ≧45 minutes, and total sleep time ≦6.5 hours. Diagnosis of rheumatoid arthritis predated the onset of insomnia symptoms.
During the double blind treatment, subjects were dosed with 3 mg eszopiclone (ESZ) or matching placebo (PBO) nightly (at bedtime) for four weeks. Data was analyzed with one-sided significance tests.

conscious dogs = assay: Dose escalation safety study, cardiovascular and respiratory parameters after acute intravenous administration; conditions: acute intravenous, 3, 5 and 12 mg/kg
Procedure: To establish the safety of eszopiclone, a dose escalation study was carried out. Cardiovascular and respiratory parameters were evaluated in conscious dogs following acute intravenous administration of (R)-, (S)- or racemic zopiclone at three doses (3, 5 and 12 mg/kg).

What does the source list for CN1CCN(C(=O)O[C@H]2c3nccnc3C(=O)N2c2ccc(Cl)cn2)CC1 [Eszopiclone, (+) 6-(5-chloropyrid-2-yl)-5-(4-methylpiperazin-1-yl)carbonyloxy-7-oxo-6,7-dihydro-5H-pyrrolo[3-4-b]pyrazine]?
Arthritis Self-Efficacy Scale Pain, Observed Value, Median ([1]; visit 5 (Week 4)): 28.0; Arthritis Self-Efficacy Scale Pain, Observed Value, Minimum ([1]; visit 5 (Week 4)): 8.0; Arthritis Self-Efficacy Scale Function, Change from Baseline, Least Squares Means (SE) [2] ([1]; visit 5 (Week 4)): 4.2 (1.7); Arthritis Self-Efficacy Scale Other Symptoms, Change from Baseline, Least Squares Means (SE) [2] ([1]; visit 5 (Week 4)): 3.4 (1.2); Arthritis Self-Efficacy Scale Overall, Change from Baseline, Least Squares Means (SE) [2] ([1]; visit 5 (Week 4)): 10.4 (3.2); Arthritis Self-Efficacy Scale Pain and Other Symptoms, Change from Baseline, Least Squares Means (SE) [2] ([1]; visit 5 (Week 4)): 6.6 (1.9); Arthritis Self-Efficacy Scale Pain, Change from Baseline, Least Squares Means (SE) [2] ([1]; visit 5 (Week 4)): 3.1 (1.0); Arthritis Self-Efficacy Scale Function, Change from Baseline, 25th Percentile ([1]; visit 6 (EOS)): −1.0; Arthritis Self-Efficacy Scale Function, Change from Baseline, 75th Percentile ([1]; visit 6 (EOS)): 14.0; Arthritis Self-Efficacy Scale Function, Change from Baseline, Maximum ([1]; visit 6 (EOS)): 58.0; Arthritis Self-Efficacy Scale Function, Change from Baseline, Mean (SD) ([1]; visit 6 (EOS)): 6.8 (15.6); Arthritis Self-Efficacy Scale Function, Change from Baseline, Median ([1]; visit 6 (EOS)): 5.0; Arthritis Self-Efficacy Scale Function, Change from Baseline, Minimum ([1]; visit 6 (EOS)): −45.0; Arthritis Self-Efficacy Scale Function, Observed Value, 25th Percentile ([1]; visit 6 (EOS)): 45.0; Arthritis Self-Efficacy Scale Function, Observed Value, 75th Percentile ([1]; visit 6 (EOS)): 85.0; Arthritis Self-Efficacy Scale Function, Observed Value, Maximum ([1]; visit 6 (EOS)): 90.0; Arthritis Self-Efficacy Scale Function, Observed Value, Mean (SD) ([1]; visit 6 (EOS)): 64.1 (20.5); Arthritis Self-Efficacy Scale Function, Observed Value, Median ([1]; visit 6 (EOS)): 65.0; Arthritis Self-Efficacy Scale Function, Observed Value, Minimum ([1]; visit 6 (EOS)): 23.0; Arthritis Self-Efficacy Scale Other Symptoms, Change from Baseline, 25th Percentile ([1]; visit 6 (EOS)): −2.5; Arthritis Self-Efficacy Scale Other Symptoms, Change from Baseline, 75th Percentile ([1]; visit 6 (EOS)): 10.0; Arthritis Self-Efficacy Scale Other Symptoms, Change from Baseline, Maximum ([1]; visit 6 (EOS)): 39.0; Arthritis Self-Efficacy Scale Other Symptoms, Change from Baseline, Mean (SD) ([1]; visit 6 (EOS)): 3.8 (10.7); Arthritis Self-Efficacy Scale Other Symptoms, Change from Baseline, Median ([1]; visit 6 (EOS)): 3.0; Arthritis Self-Efficacy Scale Other Symptoms, Change from Baseline, Minimum ([1]; visit 6 (EOS)): −24.0; Arthritis Self-Efficacy Scale Other Symptoms, Observed Value, 25th Percentile ([1]; visit 6 (EOS)): 31.0; Arthritis Self-Efficacy Scale Other Symptoms, Observed Value, 75th Percentile ([1]; visit 6 (EOS)): 51.0; Arthritis Self-Efficacy Scale Other Symptoms, Observed Value, Maximum ([1]; visit 6 (EOS)): 59.0; Arthritis Self-Efficacy Scale Other Symptoms, Observed Value, Mean (SD) ([1]; visit 6 (EOS)): 40.6 (12.6); Arthritis Self-Efficacy Scale Other Symptoms, Observed Value, Median ([1]; visit 6 (EOS)): 41.5; Arthritis Self-Efficacy Scale Other Symptoms, Observed Value, Minimum ([1]; visit 6 (EOS)): 8.0; Arthritis Self-Efficacy Scale Overall, Change from Baseline, 25th Percentile ([1]; visit 6 (EOS)): −3.0; Arthritis Self-Efficacy Scale Overall, Change from Baseline, 75th Percentile ([1]; visit 6 (EOS)): 32.0; Arthritis Self-Efficacy Scale Overall, Change from Baseline, Maximum ([1]; visit 6 (EOS)): 84.0; Arthritis Self-Efficacy Scale Overall, Change from Baseline, Mean (SD) ([1]; visit 6 (EOS)): 14.0 (30.5); Arthritis Self-Efficacy Scale Overall, Change from Baseline, Median ([1]; visit 6 (EOS)): 12.5; Arthritis Self-Efficacy Scale Overall, Change from Baseline, Minimum ([1]; visit 6 (EOS)): −89.0; Arthritis Self-Efficacy Scale Overall, Observed Value, 25th Percentile ([1]; visit 6 (EOS)): 111.0; Arthritis Self-Efficacy Scale Overall, Observed Value, 75th Percentile ([1]; visit 6 (EOS)): 163.0; Arthritis Self-Efficacy Scale Overall, Observed Value, Maximum ([1]; visit 6 (EOS)): 193.0; Arthritis Self-Efficacy Scale Overall, Observed Value, Mean (SD) ([1]; visit 6 (EOS)): 134.5 (35.9); Arthritis Self-Efficacy Scale Overall, Observed Value, Median ([1]; visit 6 (EOS)): 133.0; Arthritis Self-Efficacy Scale Overall, Observed Value, Minimum ([1]; visit 6 (EOS)): 50.0; Arthritis Self-Efficacy Scale Pain and Other Symptoms, Change from Baseline, 25th Percentile ([1]; visit 6 (EOS)): −5.0; Arthritis Self-Efficacy Scale Pain and Other Symptoms, Change from Baseline, 75th Percentile ([1]; visit 6 (EOS)): 17.0; Arthritis Self-Efficacy Scale Pain and Other Symptoms, Change from Baseline, Maximum ([1]; visit 6 (EOS)): 52.7; Arthritis Self-Efficacy Scale Pain and Other Symptoms, Change from Baseline, Mean (SD) ([1]; visit 6 (EOS)): 7.0 (18.5); Arthritis Self-Efficacy Scale Pain and Other Symptoms, Change from Baseline, Median ([1]; visit 6 (EOS)): 7.5; Arthritis Self-Efficacy Scale Pain and Other Symptoms, Change from Baseline, Minimum ([1]; visit 6 (EOS)): −44.0; Arthritis Self-Efficacy Scale Pain and Other Symptoms, Observed Value, 25th Percentile ([1]; visit 6 (EOS)): 55.0; Arthritis Self-Efficacy Scale Pain and Other Symptoms, Observed Value, 75th Percentile ([1]; visit 6 (EOS)): 88.0; Arthritis Self-Efficacy Scale Pain and Other Symptoms, Observed Value, Maximum ([1]; visit 6 (EOS)): 107.0; Arthritis Self-Efficacy Scale Pain and Other Symptoms, Observed Value, Mean (SD) ([1]; visit 6 (EOS)): 70.0 (21.0); Arthritis Self-Efficacy Scale Pain and Other Symptoms, Observed Value, Median ([1]; visit 6 (EOS)): 71.0; Arthritis Self-Efficacy Scale Pain and Other Symptoms, Observed Value, Minimum ([1]; visit 6 (EOS)): 27.0; Arthritis Self-Efficacy Scale Pain, Change from Baseline, 25th Percentile ([1]; visit 6 (EOS)): −4.0; Arthritis Self-Efficacy Scale Pain, Change from Baseline, 75th Percentile ([1]; visit 6 (EOS)): 8.0; Arthritis Self-Efficacy Scale Pain, Change from Baseline, Maximum ([1]; visit 6 (EOS)): 35.0; Arthritis Self-Efficacy Scale Pain, Change from Baseline, Mean (SD) ([1]; visit 6 (EOS)): 2.7 (10.5); Arthritis Self-Efficacy Scale Pain, Change from Baseline, Median ([1]; visit 6 (EOS)): 2.0; Arthritis Self-Efficacy Scale Pain, Change from Baseline, Minimum ([1]; visit 6 (EOS)): −20.0; Arthritis Self-Efficacy Scale Pain, Observed Value, 25th Percentile ([1]; visit 6 (EOS)): 22.0; Arthritis Self-Efficacy Scale Pain, Observed Value, 75th Percentile ([1]; visit 6 (EOS)): 37.0; Arthritis Self-Efficacy Scale Pain, Observed Value, Maximum ([1]; visit 6 (EOS)): 49.0; Arthritis Self-Efficacy Scale Pain, Observed Value, Mean (SD) ([1]; visit 6 (EOS)): 29.2 (9.8); Arthritis Self-Efficacy Scale Pain, Observed Value, Median ([1]; visit 6 (EOS)): 30.0; Arthritis Self-Efficacy Scale Pain, Observed Value, Minimum ([1]; visit 6 (EOS)): 9.0; Arthritis Self-Efficacy Scale Function, Change from Baseline, Least Squares Means (SE) [2] ([1]; visit 6 (EOS)): 6.2 (1.6); Arthritis Self-Efficacy Scale Other Symptoms, Change from Baseline, Least Squares Means (SE) [2] ([1]; visit 6 (EOS)): 3.3 (1.1); Arthritis Self-Efficacy Scale Overall, Change from Baseline, Least Squares Means (SE) [2] ([1]; visit 6 (EOS)): 12.4 (2.9); Arthritis Self-Efficacy Scale Pain and Other Symptoms, Change from Baseline, Least Squares Means (SE) [2] ([1]; visit 6 (EOS)): 6.1 (1.8); Arthritis Self-Efficacy Scale Pain, Change from Baseline, Least Squares Means (SE) [2] ([1]; visit 6 (EOS)): 2.4 (0.9); Blood gases and blood chemistries (pH, pCO2, pO2, hematocrit, and lactate) (conscious dogs): remained unaffected; cardiotoxicity by electrocardiogram (ECG) (conscious dogs): No evidence of cardiotoxicity; effect on blood pressure (conscious dogs): dose dependent, transient decreases; effect on heart rate (conscious dogs): compensatory increase
